Source: patent EP0398427A1, “Antirhinoviral pyridazinamines” (priority 1989, dated 1990)
Converted amounts (≈) assume the structure as drawn.

Tests used:
[1] = tested on: HRV-42,-45,-14,-70,-72 and -86; test: Picornavirus Minimal Inhibitory Concentration test (cytopathic effect reduction assay), second panel of rhinoviruses; assay type: cell-based; details: Human rhinovirus sp., HRV42, HeLa, read-out: Med₂
Description: (§1) The Minimal Inhibitory Concentration of the compounds of the present invention against the Human Rhinovirus strains (HRV) -2,-9,-14,-15,-29,-39,-41,-42,-45,-51 -59,-63,-70,-72-,-85,-86 and -89 was determined by a standard cytophatic effect reduction assay as follows. To each of the ninty six (96) wells of a microtiter 96 well tissue culture plate there was added 60 µl of a Ohio Hela cell maintenance medium [Eagle's Basal medium supplemented with 5% Foetal Calf Serum (FCS)]. To two wells there was added 60 µl of an appropriate starting dilution of a compound of formula (I) and two-fold dilutions were made to cover a wide range of compound concentrations. Subsequently there were added 120 µl of an infectious solution of virus in Eagle's Basal Medium with 2% Hepes buffer, 2% FCS and 30 mM MgCl₂ to all wells except cell and compound controls. Said infectious virus solution having a TCID₅₀-value (Tissue Culture Infectious Dose) of about 100.
(§2) The TCID₅₀-value is the dose of viruses which initiates a cytopathic effect in 50% of the inoculated cells. 150 µl of the thus obtained virus-compound mixtures were then transferred to microtitre plates with subconfluent Ohio Hela Cells, grown in 100 µl of maintenance medium. Appropriate virus controls, cell controls and compound controls were included in each test. Plates were incubated for 3 to 5 days at 33°C in 5% CO₂ atmosphere. […] The IC₅₀-value for each virus-compound series was taken as the concentration in ng/ml that protected 50% of the cells from cytopathic effects with respect to the untreated controls. In the standard test procedure, the compounds were tested against a first panel of rhinoviruses consisting of serotypes HRV- 2,-29,-39,-85,-9,-15,-51,-59,-63,-89 and -41 and the other panel consisting of HRV-42,-45,-14,-70,-72 and -86.
(§3) The IC₅₀-value for each rhinovirus serotype was determined, and the efficacy of each compound was determined in terms of the Med₁-value and Med₂-value, which is the medium value of the IC₅₀-values of all serotypes from the first and second panel respectively.

[2] = tested on: Human Rhinovirus serotypes HRV- 2,-29,-39,-85,-9,-15,-51,-59,-63,-89 and -41; test: Picornavirus Minimal Inhibitory Concentration test (cytopathic effect reduction assay), first panel of rhinoviruses; assay type: cell-based; details: Human rhinovirus sp., HeLa, read-out: Med₁
Description: as §1, §2, §3

| Compound | IC50 [1] [µg/mL] | IC50 [2] [µg/mL] |
| --- | --- | --- |
| CCOC(=O)c1ccc(OCCC2CCN(c3ccc(C)nn3)CC2)s1 [Compound 7, ethyl 5-[2-[1-(6-methyl-3-pyridazinyl)-4-piperidinyl]ethoxy]-2-thiophenecarboxylate] | 0.185 (≈ 0.493 µM) | 0.007 (≈ 0.0186 µM) |
| CCOC(=O)c1ccc2nc(CC3CCN(c4ccc(Cl)nn4)CC3)sc2c1 [Compound 2, ethyl 2-[[1-(6-chloro-3-pyridazinyl)-4-piperidinyl]methyl]-6-benzothiazolecarboxylate] | 0.067 (≈ 0.161 µM) | 0.031 (≈ 0.0744 µM) |
| CCOC(=O)c1ccc2oc(CCC3CCN(c4ccc(Cl)nn4)CC3)nc2c1 [Compound 4, ethyl 2-[2-[1-(6-chloro-3-pyridazinyl)-4-piperidinyl]ethyl]-5-benzoxazolecarboxylate] | 0.039 (≈ 0.094 µM) | 0.088 (≈ 0.212 µM) |
